Data reported in patent US20150315188A1, “COMPOUNDS AND METHODS FOR TREATMENT OF HYPERTENSION” (MEDIVATION TECHNOLOGIES, INC., priority 2012, published 2015).
Where two headings read alike, the source gives them in different places.

Legend:
[1] = biological target: T1, Human adrenergic α1B receptor (Homo sapiens, UniProt P35368); assay: Radioligand binding, adrenergic α1B (Protocol Group B); set-up: purchased Milipore (Millipore); settings: Protocol Group B; for inhibition at 0.1 µM / Percentage inhibition of ligand binding, Adrenergic α1B (0.1 μM): 0.1 μM compound; for inhibition at 0.1 µM: read-out: Percentage inhibition of ligand binding, Adrenergic α1B (0.1 μM); for inhibition at 0.3 µM / Percentage inhibition of ligand binding, Adrenergic α1B (0.3 μM): 0.3 μM compound; for inhibition at 0.3 µM: read-out: Percentage inhibition of ligand binding, Adrenergic α1B (0.3 μM); for Ki: estimated Ki
T1 sequence (P35368 1-520): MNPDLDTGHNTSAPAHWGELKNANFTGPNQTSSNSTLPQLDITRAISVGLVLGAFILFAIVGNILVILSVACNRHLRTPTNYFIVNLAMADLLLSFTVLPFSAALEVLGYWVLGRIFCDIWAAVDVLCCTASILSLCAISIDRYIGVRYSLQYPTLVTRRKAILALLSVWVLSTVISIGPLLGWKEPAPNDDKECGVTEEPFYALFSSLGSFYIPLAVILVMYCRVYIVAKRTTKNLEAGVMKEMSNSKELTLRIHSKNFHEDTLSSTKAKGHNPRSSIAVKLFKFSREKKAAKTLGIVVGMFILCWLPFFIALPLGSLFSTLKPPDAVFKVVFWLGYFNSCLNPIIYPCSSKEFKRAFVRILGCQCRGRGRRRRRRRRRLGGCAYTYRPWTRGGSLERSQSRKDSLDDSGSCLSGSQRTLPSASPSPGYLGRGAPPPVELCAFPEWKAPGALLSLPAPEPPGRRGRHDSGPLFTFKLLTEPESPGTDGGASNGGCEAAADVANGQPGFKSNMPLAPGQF
In short: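 Recombinant human α1B membranes incubated with test compound and 0.3 nM [3H]prazosin, 60 min at 25 °C, in 50 mM Tris-HCl pH 7.4, 10 mM MgCl2, 1 mM EDTA; nonspecific binding with 10 μM prazosin. Filter-bound radioactivity counted; values are % inhibition of specific binding or estimated Ki.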

[2] = biological target: T2, Human adrenergic α2B receptor (Homo sapiens, UniProt P18089); assay: β-Arrestin GPCR functional assay, adrenergic α2B (Protocol B); format: cell-based; settings: β-arrestin, antagonist vs nor-epinephrine EC80
T2 sequence (P18089 1-450): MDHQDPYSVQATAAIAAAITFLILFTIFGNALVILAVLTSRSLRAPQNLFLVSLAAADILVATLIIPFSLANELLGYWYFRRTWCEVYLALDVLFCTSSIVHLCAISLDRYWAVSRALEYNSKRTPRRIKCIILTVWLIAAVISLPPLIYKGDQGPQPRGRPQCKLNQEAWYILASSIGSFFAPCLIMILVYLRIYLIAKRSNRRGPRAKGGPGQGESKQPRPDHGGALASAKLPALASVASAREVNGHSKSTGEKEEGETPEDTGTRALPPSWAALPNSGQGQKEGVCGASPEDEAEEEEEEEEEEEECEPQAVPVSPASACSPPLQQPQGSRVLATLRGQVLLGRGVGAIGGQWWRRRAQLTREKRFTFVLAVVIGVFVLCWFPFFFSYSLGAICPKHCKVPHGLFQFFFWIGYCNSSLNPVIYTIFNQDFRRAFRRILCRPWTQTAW
Protocol: To evaluate the activity of compounds in β-Arrestin GPCR functional assays, recombinant CHO cell line (DiscoveRX), over expressed with human adrenergic α2B receptor were used. The experiment was done with kit of DiscoveRX as per recommended protocol of the supplier. Cells were harvested from culture flask using cell dissociation solution (CDS) and plated at a density of 12,000 cells/well in CP reagent (supplied with the kit) in a half area 96-well white polystyrene plate. After 24 h incubation at 37° C., compounds at various concentrations in 1% (final) DMSO were charged to the cells for 30 min at 37° C. Active nor-epinephrine (-NE) at its EC80 concentrations (50 nM) were then added to the cells and incubated for another 90 min at 37° C. Detection mix was prepared by mixing of Path Hunter cell assay buffer, Emerald II solution and Galactone star solution in a ratio of 19:5:1 and incubated with the cells for 60 min at RT in the dark. The reading was taken in Envision at luminescence mode. Biochemical assay results are presented as the percent Inhibition in Table B2a, or IC50 values in Table B2b.

[3] = biological target: T2, Human adrenergic α2B receptor; assay: Radioligand binding, adrenergic α2B (Protocol Group B); set-up: purchased Milipore (Millipore); settings: Protocol Group B; for Ki: estimated Ki; for Percentage inhibition of ligand binding, Adrenergic α2B (10 nM): 0.01 µM
In short: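 Recombinant human α2B receptor membranes incubated with compounds in 50 mM Tris-HCl pH 7.4, 5 mM MgCl2, 1 mM CaCl2, 0.2% BSA, 1% DMSO vehicle. Non-specific binding defined with 10 μM rauwolscine. Values are percent inhibition of specific binding or estimated Ki.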

[4] = biological target: T3, Human adrenergic α2A receptor (Homo sapiens, UniProt P08913); assay: Radioligand binding, adrenergic α2A (Protocol Group B); set-up: purchased Milipore (Millipore); settings: Protocol Group B; for inhibition at 0.1 µM / Percentage inhibition of ligand binding, Adrenergic α2A (0.1 μM): 0.1 μM compound; for inhibition at 0.1 µM: read-out: Percentage inhibition of ligand binding, Adrenergic α2A (0.1 μM); for inhibition at 0.3 µM / Percentage inhibition of ligand binding, Adrenergic α2A (0.3 μM): 0.3 μM compound; for inhibition at 0.3 µM: read-out: Percentage inhibition of ligand binding, Adrenergic α2A (0.3 μM); for Ki: estimated Ki
T3 sequence (P08913 1-465): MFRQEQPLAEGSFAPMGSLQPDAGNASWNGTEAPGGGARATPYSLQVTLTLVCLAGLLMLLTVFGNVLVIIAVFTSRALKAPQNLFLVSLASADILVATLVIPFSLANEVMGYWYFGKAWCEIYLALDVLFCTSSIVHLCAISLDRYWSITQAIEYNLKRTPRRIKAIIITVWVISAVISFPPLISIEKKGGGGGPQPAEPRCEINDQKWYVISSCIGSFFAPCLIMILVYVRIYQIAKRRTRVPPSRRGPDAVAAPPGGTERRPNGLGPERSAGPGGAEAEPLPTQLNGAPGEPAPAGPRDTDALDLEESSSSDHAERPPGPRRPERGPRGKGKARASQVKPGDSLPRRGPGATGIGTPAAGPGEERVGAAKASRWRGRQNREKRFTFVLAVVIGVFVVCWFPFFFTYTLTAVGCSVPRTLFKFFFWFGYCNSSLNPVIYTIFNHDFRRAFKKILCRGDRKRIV
In short: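 Membranes from recombinant cells expressing the receptor, in 50 mM Tris-HCl pH 7.4 with 5 mM MgCl2, 1 mM CaCl2, 0.2% BSA; compounds incubated with 2 nM [^3H]MK-912 for 60 min at 25° C. Nonspecific binding defined by 10 μM rauwolscine; filtration, counting; percent inhibition of specific binding, or estimated Ki.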

[5] = 10 nM compound, read-out: Percentage inhibition of ligand binding, Adrenergic α2B (10 nM)
[6] = 30 nM compound, read-out: Percentage inhibition of ligand binding, Adrenergic α2B (30 nM)
[7] = 0.1 μM compound, read-out: Percentage inhibition of ligand binding, Adrenergic α2B (0.1 μM)

Compound: Cc1ccc2c(c1)c1c(n2CC(O)c2ccncc2)CNC2CCCC12 (single isomer, unassigned) [34c]
- inhibition at 0.1 µM [1]: 3%
- inhibition at 0.3 µM [1]: 28%
- Ki [1]: 0.379 µM
- IC50 ([2]; read-out: IC50 Adrenergic α2B): 0.251 µM
- inhibition at 0.01 µM [3, 5]: 52%
- inhibition at 0.03 µM [3, 6]: 80%
- inhibition at 0.1 µM [3, 7]: 90%
- Ki ([3]; read-out: Ki α2B): 0.0046 µM
- inhibition at 0.1 µM [4]: 4%
- inhibition at 0.3 µM [4]: 11%
- Ki [4]: 5.16 µM

Compound: Cc1cc(F)c2c(c1)c1c(n2CC(C)(O)c2cccnc2)CC2CCCN2C1 (single isomer, unassigned) [61c]
- inhibition at 0.1 µM [1]: 4%
- inhibition at 0.3 µM [1]: 15%
- IC50 ([2]; read-out: IC50 Adrenergic α2B): 0.313 µM
- inhibition at 0.01 µM [3, 5]: 51%
- inhibition at 0.03 µM [3, 6]: 77%
- inhibition at 0.1 µM [3, 7]: 92%
- Ki ([3]; read-out: Ki α2B): 0.0054 µM
- inhibition at 0.1 µM [4]: 2%
- inhibition at 0.3 µM [4]: 41%

Compound: CC(O)(Cn1c2c(c3cc(F)cc(Cl)c31)C1CCCN1CC2)c1cccnc1 (single isomer, unassigned) [89c]
- Percentage inhibition of ligand binding, Adrenergic α1B (0.1 μM) [1]: 0%
- Percentage inhibition of ligand binding, Adrenergic α1B (0.3 μM) [1]: 22%
- IC50 ([2]; read-out: IC50 Adrenergic α2B): 0.0455 µM
- Percentage inhibition of ligand binding, Adrenergic α2B (10 nM) ([3]; 10 nM compound): 54%
- Percentage inhibition of ligand binding, Adrenergic α2B (30 nM) ([3]; 30 nM compound, 0.03 µM): 78%
- Ki ([3]; read-out: Ki α2B): 0.0076 µM
- Percentage inhibition of ligand binding, Adrenergic α2A (0.1 μM) [4]: 24%
- Percentage inhibition of ligand binding, Adrenergic α2A (0.3 μM) [4]: 40%

Compound: Cc1ccc2c(c1)c1c(n2CC(OC2CCCC2)c2ccncc2)CCN(C)C1 (single isomer, unassigned) [35b]
- Percentage inhibition of ligand binding, Adrenergic α1B (0.1 μM) [1]: 5%
- Percentage inhibition of ligand binding, Adrenergic α1B (0.3 μM) [1]: 17%
- Ki [1]: 0.456 µM
- IC50 ([2]; read-out: IC50 Adrenergic α2B): 0.212 µM
- Percentage inhibition of ligand binding, Adrenergic α2B (10 nM) ([3]; 10 nM compound): 65%
- Percentage inhibition of ligand binding, Adrenergic α2B (30 nM) ([3]; 30 nM compound): 86%
- Percentage inhibition of ligand binding, Adrenergic α2B (0.1 μM) ([3]; 0.1 μM compound): 96%
- Ki ([3]; read-out: Ki α2B): 0.00349 µM
- Percentage inhibition of ligand binding, Adrenergic α2A (0.1 μM) [4]: 25%
- Percentage inhibition of ligand binding, Adrenergic α2A (0.3 μM) [4]: 45%
- Ki [4]: 0.241 µM

Compound: CC(O)(Cn1c2c(c3cc(F)cc(Cl)c31)C1CCCN1CC2)c1ccncc1 (single isomer, unassigned) [88a]
- Percentage inhibition of ligand binding, Adrenergic α1B (0.1 μM) [1]: 15%
- inhibition at 0.3 µM [1]: 43%
- IC50 ([2]; read-out: IC50 Adrenergic α2B): 0.388 µM
- inhibition at 0.01 µM [3, 5]: 86%
- inhibition at 0.03 µM [3, 6]: 93%
- Ki ([3]; read-out: Ki α2B): 0.00145 µM
- Percentage inhibition of ligand binding, Adrenergic α2A (0.1 μM) [4]: 52%
- Percentage inhibition of ligand binding, Adrenergic α2A (0.3 μM) [4]: 72%
- Ki [4]: 0.0439 µM

Compound: CC(O)(Cn1c2c(c3cc(F)cc(Cl)c31)C1CCCN1CC2)c1ccncc1 (single isomer, unassigned) [88b]
- Percentage inhibition of ligand binding, Adrenergic α1B (0.1 μM) [1]: −1%
- Percentage inhibition of ligand binding, Adrenergic α1B (0.3 μM) [1]: 33%
- IC50 ([2]; read-out: IC50 Adrenergic α2B): 0.166 µM
- Percentage inhibition of ligand binding, Adrenergic α2B (10 nM) ([3]; 10 nM compound): 70%
- Percentage inhibition of ligand binding, Adrenergic α2B (30 nM) ([3]; 30 nM compound, 0.03 µM): 90%
- Ki ([3]; read-out: Ki α2B): 0.00285 µM
- Percentage inhibition of ligand binding, Adrenergic α2A (0.1 μM) [4]: 19%
- Percentage inhibition of ligand binding, Adrenergic α2A (0.3 μM) [4]: 44%

Compound: CC(O)(Cn1c2c(c3cc(C(F)(F)F)ccc31)CN1CCCC1C2)c1cccnc1 (single isomer, unassigned) [85a]
- inhibition at 0.1 µM [1]: -9%
- inhibition at 0.3 µM [1]: 4%
- IC50 ([2]; read-out: IC50 Adrenergic α2B): 0.832 µM
- inhibition at 0.01 µM [3, 5]: 9%
- inhibition at 0.03 µM [3, 6]: 42%
- Ki ([3]; read-out: Ki α2B): 0.0326 µM
- inhibition at 0.1 µM [4]: -12%
- inhibition at 0.3 µM [4]: -4%

Compound: Cc1ccc2c(c1)c1c(n2CC(C)(O)c2ccc(F)cc2)CC2CCC1N2C (single isomer, unassigned) [102b]
- inhibition at 0.1 µM [1]: 5%
- inhibition at 0.3 µM [1]: 26%
- IC50 ([2]; IC50 Adrenergic α2B): 0.412 µM
- Ki ([3]; Ki α2B): 0.0193 µM
- inhibition at 0.01 µM ([3]; read-out: Percentage inhibition of ligand binding, Adrenergic α2B (10 nM), 10 nM compound): 28%
- inhibition at 0.03 µM ([3]; read-out: Percentage inhibition of ligand binding, Adrenergic α2B (30 nM), 30 nM compound): 56%
- inhibition at 0.1 µM ([3]; read-out: Percentage inhibition of ligand binding, Adrenergic α2B (0.1 μM), 0.1 μM compound): 70%
- inhibition at 0.1 µM [4]: -1%
- inhibition at 0.3 µM [4]: 23%

Compound: CC(O)(Cn1c2c(c3cc(Cl)cc(F)c31)CN1CCCC1C2)c1ccncc1 (single isomer, unassigned) [86c]
- inhibition at 0.1 µM [1]: -5%
- inhibition at 0.3 µM [1]: 15%
- IC50 ([2]; read-out: IC50 Adrenergic α2B): 0.699 µM
- inhibition at 0.01 µM [3, 5]: 24%
- inhibition at 0.03 µM [3, 6]: 53%
- Ki ([3]; read-out: Ki α2B): 0.013 µM
- inhibition at 0.1 µM [4]: -10%
- inhibition at 0.3 µM [4]: 9%
